US9927424B2, “Assays for identifying compounds that modulate bitter taste” (Chromocell Corporation, priority 2013, dated 2018)

Columns and labels:
Format in all cases: cell-based
TAS2R60 = target: T1, TAS2R60 (Homo sapiens, UniProt P59551); test: Calcium fluorescence functional assay, TAS2R60 cell line with mouse Gα15; settings: for TAS2R60 bitter receptor activity (functional response): 20 mM tastant, change in intracellular calcium, data for potassium nitrate and potassium phosphate (dibasic) preliminary; for EC50: approximately, increasing concentrations of tastant
T1 construct: expressed in transfected cells
T1 sequence (P59551 1-318): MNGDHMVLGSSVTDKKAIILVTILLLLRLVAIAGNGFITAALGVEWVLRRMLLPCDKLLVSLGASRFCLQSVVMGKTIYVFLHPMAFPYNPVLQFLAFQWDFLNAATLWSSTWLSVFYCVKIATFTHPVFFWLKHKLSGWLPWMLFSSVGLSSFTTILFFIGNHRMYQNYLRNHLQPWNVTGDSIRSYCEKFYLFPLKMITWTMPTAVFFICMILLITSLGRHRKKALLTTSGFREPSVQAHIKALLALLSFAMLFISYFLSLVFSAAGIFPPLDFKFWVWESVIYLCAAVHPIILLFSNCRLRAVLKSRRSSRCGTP
Protocol: Accordingly, each cell line of the panel expressed a human bitter taste receptor and mouse Gα15 signaling protein.
Probenecid was not included in the load solution. • Functional assay: After dye loading, cell plates were placed in a fluorescent plate reader (e.g., FDSS6000 (Hamamatsu, Japan)) and receptor stimulation was measured by adding 50 ul of 3× concentrated ligand/agonist stock. Fluorescence was monitored continuously for 10 s before agonist addition and for 100-250 s after stimulation with agonist.
(§1) Receptor Activation is defined as follows: • % Activation=[((Maximum signal fluorescence−Minimum signal fluorescence)−(Maximum control fluorescence−Minimum control fluorescence))/(Maximum buffer fluorescence−Minimum buffer fluorescence)]*100 • Functional Response=[(Maximum signal fluorescence−Minimum signal fluorescence)−(Maximum control fluorescence−Minimum control fluorescence)] • Signal fluorescence: refers to the change in fluorescence seen with addition of ligand • Control fluorescence: refers to the change in fluorescence seen with addition of buffer (negative control) • Calcium signals from ligand and control were normalized to the basal fluorescence of the cells prior to the stimulation.
(§2) A concentration analysis was performed and EC50 values were calculated by nonlinear regression using the formula: Y=Bottom+(Top−Bottom)/(1+10^((Log EC50−X)*Hill Slope)), X=log of dose or concentration, Y=Response (increasing as X increases), Top=maximum signal, Bottom=minimum signal.

TAS2R4 = target: T2, TAS2R4 (Homo sapiens, UniProt Q9NYW5); test: Calcium fluorescence functional assay, TAS2R4 cell line with mouse Gα15; settings: for TAS2R4 bitter receptor activity (functional response): 20 mM tastant, change in intracellular calcium; for EC50: approximately, increasing concentrations of tastant
T2 construct: expressed in transfected cells
T2 sequence (Q9NYW5 1-299): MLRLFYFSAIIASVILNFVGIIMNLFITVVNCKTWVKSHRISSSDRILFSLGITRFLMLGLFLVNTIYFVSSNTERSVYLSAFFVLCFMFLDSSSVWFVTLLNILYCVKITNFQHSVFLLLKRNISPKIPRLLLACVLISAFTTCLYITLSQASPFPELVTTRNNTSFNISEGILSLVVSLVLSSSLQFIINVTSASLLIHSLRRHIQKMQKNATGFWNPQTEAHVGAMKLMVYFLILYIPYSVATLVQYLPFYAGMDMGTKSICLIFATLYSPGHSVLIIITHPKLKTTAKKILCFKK
Protocol: (§3) A panel of cell lines expressing eight specific bitter taste receptors, a subset of the panel of twenty-five bitter receptors described in International Patent Application Publication WO 2010/088633 (see, e.g., Example 26), was used for the purpose of these analyses. Accordingly, each cell line of the panel expressed a human bitter taste receptor and mouse Gα15 signaling protein.
(§4) Each of the Examples below utilized the following functional assay: • Day 1: Stable cell lines were seeded onto black wall/clear bottom 96-well, plates (e.g., Corning, 3904). Approximately 40K cells were added per well and incubated at 37° C., 5% CO2 overnight in cell growth media (DMEM (Sigma, D5796) supplemented with 10% Fetal Bovine Serum (Sigma, 5178), 2 mM Glutamine (Sigma, G7513)). • Day 2: Growth media was discarded and cells were incubated at 37° C., 5% CO2 for 60 minutes in 100 ul of load solution containing 1× Ca-3 dye (Molecular Devices, R8090), 1% DMSO in buffer containing 130 mM NaCl, 2 mM CaCl2, 5 mM KCl, 1.2 mM MgCl2, 10 mM HEPES and 10 mM Glucose (pH 7.0). Probenecid was not included in the load solution. • Functional assay: After dye loading, cell plates were placed in a fluorescent plate reader (e.g., FDSS6000 (Hamamatsu, Japan)) and receptor stimulation was measured by adding 50 ul of 3× concentrated ligand/agonist stock. Fluorescence was monitored continuously for 10 s before agonist addition and for 100-250 s after stimulation with agonist.
as §1
as §2, with “signal. EC50 (half maximal effective concentration) refers to the molar concentration of the agonist which produces 50% of the maximum possible effective response from that agonist.” for “signal.”

TAS2R38 (PAV) = target: T3, TAS2R38 (PAV) (Homo sapiens, UniProt P59533, A49P/I296V); test: Calcium fluorescence functional assay, TAS2R38 (PAV) cell line with mouse Gα15; settings: for TAS2R38 (PAV) bitter receptor activity (functional response): 20 mM tastant, change in intracellular calcium; for EC50: approximately, increasing concentrations of tastant
T3 construct: expressed in transfected cells
T3 sequence (P59533 1-333 A49P/I296V): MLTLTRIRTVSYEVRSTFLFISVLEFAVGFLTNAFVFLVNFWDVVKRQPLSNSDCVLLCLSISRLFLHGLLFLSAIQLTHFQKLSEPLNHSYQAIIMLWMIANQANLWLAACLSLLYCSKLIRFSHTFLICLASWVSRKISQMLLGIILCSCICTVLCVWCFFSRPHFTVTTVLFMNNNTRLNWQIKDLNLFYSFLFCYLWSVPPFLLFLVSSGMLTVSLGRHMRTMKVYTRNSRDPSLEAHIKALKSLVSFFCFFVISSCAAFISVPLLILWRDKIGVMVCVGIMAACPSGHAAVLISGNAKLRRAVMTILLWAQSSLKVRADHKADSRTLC
Protocol: as §3, §4, §1
as §2, with “signal. EC50 (half maximal effective concentration) refers to the molar concentration of the agonist which produces 50% of the maximum possible effective response from that agonist.” for “signal.”

TAS2R44 = target: T4, TAS2R44 (Homo sapiens, UniProt P59538); test: Calcium fluorescence functional assay, TAS2R44 cell line with mouse Gα15; settings: for TAS2R44 bitter receptor activity (functional response): 20 mM tastant, change in intracellular calcium; for EC50: approximately, increasing concentrations of tastant
T4 construct: expressed in transfected cells
T4 sequence (P59538 1-309): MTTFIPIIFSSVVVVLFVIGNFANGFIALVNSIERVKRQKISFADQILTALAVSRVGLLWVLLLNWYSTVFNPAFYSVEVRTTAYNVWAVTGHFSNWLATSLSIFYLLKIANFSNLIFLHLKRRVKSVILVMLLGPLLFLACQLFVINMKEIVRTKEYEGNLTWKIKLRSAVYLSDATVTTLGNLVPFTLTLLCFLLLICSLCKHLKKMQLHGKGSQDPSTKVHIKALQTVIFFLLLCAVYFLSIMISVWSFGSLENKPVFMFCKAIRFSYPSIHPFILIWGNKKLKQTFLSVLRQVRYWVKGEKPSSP
Protocol: as §3, §4, §1
as §2, with “signal. EC50 (half maximal effective concentration) refers to the molar concentration of the agonist which produces 50% of the maximum possible effective response from that agonist.” for “signal.”

Row | Structure (SMILES) | TAS2R60 bitter receptor activity (functional response) (TAS2R60) | EC50 (TAS2R60) [mM] | TAS2R4 bitter receptor activity (functional response) (TAS2R4) | EC50 (TAS2R4) [mM] | TAS2R38 (PAV) bitter receptor activity (functional response) (TAS2R38 (PAV)) | EC50 (TAS2R38 (PAV)) [mM] | TAS2R44 bitter receptor activity (functional response) (TAS2R44) | EC50 (TAS2R44) [mM]
1 | O=C([O-])c1ccccc1.[K+] [potassium benzoate] | induced | 5 to 10 | induced | 5 to 10 | induced | 5 to 10 | induced | 5 to 10
2 | O=P([O-])([O-])O.[K+].[K+] [potassium phosphate (dibasic)] | induced |  | induced |  | induced |  | induced | 
3 | C/C=C/C=C/C(=O)[O-].[K+] [potassium sorbate] | induced |  | induced |  | induced |  | induced | 
4 | O=[N+]([O-])[O-].[K+] [potassium nitrate] | induced |  | induced |  | induced |  | induced | 
5 | [Cl-].[K+] [KCl] |  |  |  |  | strongly and specifically responded | 5 to 15 |  | 
6 | O=S(=O)([O-])[O-].[K+].[K+] [potassium sulfate] | induced |  | induced |  | induced |  | induced | 
7 | CC(=O)[O-].[K+] [potassium acetate] | induced | 5 to 10 | induced | 5 to 10 | did not induce |  | induced | 5 to 10
8 | O=C([O-])[C@H](O)[C@@H](O)[C@H](O)[C@H](O)CO.[K+] [potassium gluconate] | did not induce |  | induced |  | induced |  | induced | 
